Results reported in patent publication EP0649467B1, “SELF-STABILIZED OLIGONUCLEOTIDES AS THERAPEUTIC AGENTS” (HYBRIDON, Inc., priority 1992, dated 1994).
Where two headings read alike, the source gives them in different places.

Key:
HIV-1 = assay: Anti-HIV activity: p24 expression by ELISA in HIV-1 infected H9 lymphocytes; assay type: cell-based; design: Inhibition of p24 (%): dose or concentration left out as unconfirmed; settings: for Inhibition of p24 (%): three days; for IC50: Human immunodeficiency virus 1, Lymphocyte, p24 expression, positive control
Protocol: H9 lymphocytes were infected with HIV-1 virions (≡0.01 - 0.1 TCID50/cell) for one hour at 37°C. After one hour, unadsorbed virions were washed and the infected cells were divided among wells of 24 well plates. To the infected cells, an appropriate concentration (from stock solution) of oligonucleotide was added to obtain the required concentration in 2 ml medium. In a positive control experiment ddC or AZT was added. The cells were then cultured for three days. At the end of three days, supernatant from the infected culture was collected and measured for p24 expression by ELISA. The level of expression of p24 was compared between oligonucleotide treated and untreated (no drug) infected cells.

H9 lymphocytes = assay: Cytotoxicity by trypan blue dye exclusion; assay type: cell-based; design: dose or concentration left out as unconfirmed
Source text: Cytotoxicity of oligonucleotides was studied by culturing the cells with increasing concentration of oligonucleotide and by the trypan blue dye exclusion method.

[1] = Experiment 1, concentration 0.04
[2] = Experiment 1, concentration 0.08
[3] = Experiment 1, concentration 0.2
[4] = Experiment 1, concentration .0016
[5] = Experiment 2, concentration 0.0016
[6] = Experiment 2, concentration 0.008
[7] = Experiment 2, concentration 0.04
[8] = Experiment 2, concentration 0.2

## Cc1cn([C@H]2C[C@H](N=[N+]=[N-])[C@@H](CO)O2)c(=O)[nH]c1=O [AZT]
HIV-1; [1]
  Inhibition of p24 (%): 73%
HIV-1; [2]
  Inhibition of p24 (%): 44%
HIV-1; [3]
  Inhibition of p24 (%): 90%
HIV-1; [4]
  Inhibition of p24 (%): 6%
HIV-1; [5]
  Inhibition of p24 (%): 6%
HIV-1; [6]
  Inhibition of p24 (%): 5%
HIV-1; [7]
  Inhibition of p24 (%): 65%
HIV-1; [8]
  Inhibition of p24 (%): 89%
HIV-1; Experiment 1, read-out: IC50
  IC50: 37 nM
HIV-1; Experiment 2
  IC50: 100 nM
H9 lymphocytes; [1]
  % Cell Survival: 98%
H9 lymphocytes; [2]
  % Cell Survival: 104%
H9 lymphocytes; [3]
  % Cell Survival: 95%
H9 lymphocytes; [4]
  % Cell Survival: 108%
H9 lymphocytes; [5]
  % Cell Survival: 103%
H9 lymphocytes; [6]
  % Cell Survival: 101%
H9 lymphocytes; [7]
  % Cell Survival: 98%
H9 lymphocytes; [8]
  % Cell Survival: 93%
